The values below are quoted from earlier work in patent US9316644B2, “Method for establishing the sensitivity of tumours to capecitabin and test kit” (SANOXSYS GMBH, priority 2006, dated 2016).

Series [1] relates to progressive mamma carcinoma. Conditions: of 25 patients; continuous low-dose 5-FU.
Series [2] concerns metastatic mamma carcinomas. Particulars: for median reaction duration: in vivo; for ORR (overall response): second line after anthracycline failure.
Series [3] deals with metastatic mamma carcinomas.
The test system of series [4] is metastatic mamma carcinoma.
The mark [5] stands for this setting: 68 patients evaluable for effectivity.

Molecules are shown by their SMILES. Read-outs that look alike come from different tables or passages of the source.

As to `O=c1[nH]cc(F)c(=O)[nH]1` [5-FU, 5-Fluorouracil], in series [1], the “patients achieving an objective reaction” value was 8 patients.

As for `CC(=O)O[C@H]1C(=O)[C@@]2(C)[C@H]([C@H](OC(=O)c3ccccc3)[C@]3(O)C[C@H](OC(=O)[C@H](O)[C@@H](NC(=O)c4ccccc4)c4ccccc4)C(C)=C1C3(C)C)[C@]1(OC(C)=O)CO[C@@H]1C[C@@H]2O` [Paclitaxel], in series [2], the median reaction duration is 9.4 months and the “ORR (overall response)” value is 21%.

Take `CCCCCOC(=O)Nc1nc(=O)n(C2OC(C)C(O)C2O)cc1F` (centres unmarked) [capecitabine, Pentyl[1-(3,4-dihydroxy-5-methyl-tetrahydrofuran-2-yl)-5-fluoro-2-oxo-1H-pyrimidin-4-yl]aminomethanoat]: the combination effect entry (with CPT-11, Tomudex, Mitomycin C or Cyclophosphamide) is given as “additive”. Further, for the setting “with Paclitaxel or Docetaxel”, the combination effect result was “supra-additive”. The combination effect entry (with a radiation therapy) was “Synergetic effects”. For the same compound, in series [2], the median reaction duration is reported as 9.4 months and the “ORR (overall response)” value is recorded as 36%. Besides, in series [3] (human, in vivo), the mean remission duration is 241 days, the median survival is given as 384 days, the “median time until progression” value is on record as 93 days and the “patients with stable sequence of the illness” value is on record as 43%. For the same compound, the therapy-induced fatalities result in series [3] (human, in vivo) is “did not occur”. For the same compound, the objective remission rate in series [3] (intend to treat evaluation, 162 patients, 2510 mg/m^2/day for 14 days, 7-day break) was 20%. Moreover, the tolerability result in series [3] (no pre-medication or primary prophylaxis necessary) was “excellent tolerability profile”. In addition, the “patients whose pain was reduced by more than 50%” value in series [3] (of 51 patients with pain figure above 20 mm on analogue pain scale at start) is 47%. For the same compound, in series [3] (sub-group of 42 anthracycline and paclitaxel therapy refractory patients), the reaction rate was 29%. Further, in series [4] (setting [5]), the complete remission is 3% and the partial remission is on record as 22%. Also, in series [4] (CTC degree 1 and 2), the diarrhea is on record as 21%; the lethargy was 18%; the nausea and vomiting is reported as 38%. Also, the “hand and foot syndrome” value in series [4] (CTC degree 1 and 2, 1250 mg/m^2 twice a day for 14 days, 7-day break, 77 patients evaluable) was 40%. The “hand and foot toxicity” value in series [4] (degree 3) is listed as 14%. Also, the “stabilization of the disease” value in series [4] (in vivo) was 47%. The tumor control in series [4] (patients with intensive previous treatment) was 72%.
